Experiments:
Assay type in all cases: functional, Splenocyte
[1] = Immunostimulatory activity in Balb/c mouse splenocytes assessed as increase in conA-induced T cell proliferation at 5 uM after 72 hrs by MTT assay relative to control
[2] = Immunostimulatory activity in Balb/c mouse splenocytes assessed as increase in conA-induced T cell proliferation at 10 uM after 72 hrs by MTT assay relative to control
[3] = Immunostimulatory activity in Balb/c mouse splenocytes assessed as increase in conA-induced T cell proliferation at 25 uM after 72 hrs by MTT assay relative to control
[4] = Immunostimulatory activity in Balb/c mouse splenocytes assessed as increase in conA-induced T cell proliferation at 50 uM after 72 hrs by MTT assay relative to control
[5] = Immunostimulatory activity in Balb/c mouse splenocytes assessed as increase in conA-induced T cell proliferation at 100 uM after 72 hrs by MTT assay relative to control

SMILES | Activity [1] [%] | Activity [2] [%] | Activity [3] [%] | Activity [4] [%] | Activity [5] [%]
COc1cccc(N2C(=O)CS[C@@H]2[C@H]2O[C@H](CO)[C@@H](O)[C@@H]2O)c1 | 17.6 | 165.1 | 129.3 | 158.7 | 125.4
Cc1cccc(N2C(=O)CS[C@H]2[C@H]2O[C@H](CO)[C@@H](O)[C@@H]2O)c1 | 149.2 | 142.1 | 152.4 | 158.7 | 169.8
Cc1cccc(N2C(=O)CS[C@@H]2[C@H]2O[C@H](CO)[C@@H](O)[C@@H]2O)c1 | 163.5 | 155.6 | 157.9 | 134.9 | 160.3
COc1cccc(N2C(=O)CS[C@H]2[C@H]2O[C@H](CO)[C@@H](O)[C@@H]2O)c1 | 146 | 134.1 | 156.3 | 147.6 | 162.7
CCOC(=O)c1ccc(N2C(=O)CS[C@H]2[C@H]2O[C@H](CO)[C@@H](O)[C@@H]2O)cc1 | 153.2 | 136.5 | 161.9 | 136.5 | 142.9
CCOC(=O)c1ccc(N2C(=O)CS[C@@H]2[C@H]2O[C@H](CO)[C@@H](O)[C@@H]2O)cc1 | 132.5 | 177 | 126.2 | 206.3 | 180.2
O=C1CS[C@H]([C@H]2O[C@H](CO)[C@@H](O)[C@@H]2O)N1c1ccc(Cl)cc1 | 101.6 | 91.5 | 87.6 | 30.9 | 107.1
Cc1ccc(N2C(=O)CS[C@H]2[C@H]2O[C@H](CO)[C@@H](O)[C@@H]2O)cc1 | 84.9 | 83.7 | 86.1 | 96.3 | 95.2
Cc1ccc(N2C(=O)CS[C@@H]2[C@H]2O[C@H](CO)[C@@H](O)[C@@H]2O)cc1 | 91.2 | 110 | 95.6 | 104 | 105.6
COc1ccc(N2C(=O)CS[C@H]2[C@H]2O[C@H](CO)[C@@H](O)[C@@H]2O)cc1 | – | 106.8 | 106.8 | 103.2 | 99.2
COc1ccc(N2C(=O)CS[C@@H]2[C@H]2O[C@H](CO)[C@@H](O)[C@@H]2O)cc1 | 108.8 | 105.2 | 97.2 | 93.6 | 99.6
O=C1CS[C@@H]([C@H]2O[C@H](CO)[C@@H](O)[C@@H]2O)N1c1cccc(Cl)c1 | 139.7 | 138.2 | 130.3 | 121.5 | 126
O=C1CS[C@H]([C@H]2O[C@H](CO)[C@@H](O)[C@@H]2O)N1c1cccc(Cl)c1 | 162.2 | 155.6 | 158.7 | 161.1 | 144.4
O=C1CS[C@@H]([C@H]2O[C@H](CO)[C@@H](O)[C@@H]2O)N1c1ccc(Cl)cc1 | 100 | 101.2 | 102.2 | 112.3 | 112.4
